Measured values from patent publication US20060247321A1, “Abnormal Cannabidiols as agents useful in combination therapy for lowering intraocular pressure” (priority 2005, published 2006).

How the values were obtained:
Type in all cases: in vivo
[1] = tested on: Laser-induced unilaterally ocular hypertensive Cynomolgus monkeys; experiment: Intraocular pressure by applanation pneumatonometry in conscious monkeys; conditions: 0.1%, topical to one eye, once daily for 4 days, vehicle in fellow eye
Method: (§1) Intraocular pressure was measured by applanation pneumatonometry in conscious animals. The test compound was administered topically to one eye while vehicle was given to the fellow eye in a masked fashion. Ocular normotensive Beagle dogs (males, females) were dosed once daily for five days. Laser-induced unilaterally ocular hypertensive Cynomolgus monkeys (females) were dosed once daily for 4 days. Student's paired t-test was used for statistical comparisons. Differences were considered statistically significant if the P-value is less than 0.05.

[2] = tested on: ocular normotensive nonhuman primates (cynomolgus monkeys); experiment: Uveoscleral outflow of monkeys treated with abnormal cannabidiol; conditions: 0.1%
From the text: (§2) Consequently, the intraocular pressure lowering effects of abnormal cannabidiol is anticipated to predominantly involve reduction of aqueous humor formation in humans and nonhuman primates.

[3] = tested on: Ocular normotensive Beagle dogs; experiment: Intraocular pressure by applanation pneumatonometry in conscious dogs; conditions: 0.1%, topical to one eye, once daily for five days, vehicle in fellow eye
Method: as §1

[4] = tested on: ocular normotensive nonhuman primates (cynomolgus monkeys); experiment: Outflow facility of monkeys treated with abnormal cannabidiol; conditions: 0.1%
From the text: as §2

[5] = topically once-daily for 5 days

Abnormal Cannabidiol
effect on Monkey Intraocular Pressure versus time [1]: lowers IOP | Uveosclearal Outflow, Ratio, Treated:Control ([2]; topical once-daily for 5 days vs vehicle, mean ± sem, n = 5 animals): 0.78 ± 0.05 | Uveosclearal Outflow, Treated Eye ([2]; topical once-daily for 5 days, mean ± sem, n = 5 animals): 0.58 ± 0.17 µL/min | effect on uveoscleral outflow compared to baseline and/or contralateral vehicle-treated control eyes [2, 5]: no significant effects | effect on Dog Intraocular Pressure versus time [3]: lowers IOP | Outflow Facility, Ratio, Treated:Control, Treatment ([4]; topical once-daily for 5 days vs vehicle, mean ± sem, n = 6 animals): 0.93 ± 0.09 | Outflow Facility, Treated Eye, Treatment ([4]; topical once-daily for 5 days, mean ± sem, n = 6 animals): 0.57 ± 0.08 ul/min/mm Hg | effect on total outflow facility compared to baseline and/or contralateral vehicle-treated control eyes [4, 5]: no significant effects
